According to patent US20140199420A1, “USES OF TOONA SINENSIS EXTRACT” (National Chung Hsing University, priority 2013, published 2014):

System: lactic acid bacteria
Test: Lactic acid bacteria count of Taiwanese style sausage during storage
Details: second group, 25% sodium lactate; at 4 and 8 weeks storage at 15° C.
Protocol: The each group of sausages prepared from example 4 was packed in equal with vacuum package and stored at 15° C. for 8 weeks. Taking the amounts of sausages from the each group in 0, 1, 2, 3, 4 and 8 weeks were separately packed into sterile bags with sterile water and homogenized with a stomacher (Lab-Blender 400, England) for 30 second to have dilutions of the each group's sausages at different storage times for further microbiological analyzing.
The dilutions of the each group's sausage at different storage times were separately poured into a petri dish, added first layer of MRS agar into the each petri dish and then mixed completely. The second layer of MRS agar was poured on the first layer of MRS agar to produce an anaerobic condition then mixed and incubated at 37° C. for 48 hours in an anaerobic jar.

How did the “lactic acid bacteria count” value turn out when `CC(O)C(=O)[O-].[Na+]` (stereo not shown) [sodium lactate] was run?
The value was 7.52 log CFU/g.
